Source: patent US7384914B2 (Emisphere Technologies, Inc., priority 2003, dated 2008)

How the values were obtained:
[1] = Pharmacokinetic studies of 4-CNAB after oral administration in mice; assay type: in vivo
[2] = Pharmacokinetic studies of 4-CNAB after oral administration in rats; assay type: in vivo
[3] = Pharmacokinetic studies of 4-CNAB after oral administration in monkeys; assay type: in vivo
[4] = tested on: primary molecular targets; test: Receptor binding screening assays
Genotoxicity studies = details: four genotoxicity studies
[5] = 14-day oral repeated dose toxicity study in monkeys; details: rhesus monkey, in vivo, 14 days
Method: In toxicology studies, 4-CNAB doses from 400 mg to 2000 mg were evaluated.

[6] = Open-label single-dose crossover study of oral Insulin/4-CNAB in type 2 diabetic subjects (fasting / standard meal); assay type: in vivo, human
Text: In the first part of the study, twenty-four human diabetic subjects (patients) of age 35-70 years, with elevated fasting blood glucose levels but in otherwise good general health on the basis of a medical history, physical examination and clinical laboratory studies, participated in the study and were studied in the overnight-fasted state on two occasions, separated by an interval of at least 7 days.

## O=C(O)CCCNC(=O)c1ccc(Cl)cc1O [4-CNAB, monosodium N-(4-chlorosalicyloyl)-4-aminobutyrate]
[1]
  4-CNAB absorption following oral administration: absorbed rapidly
[2]
  4-CNAB absorption following oral administration: absorbed rapidly
[3]
  4-CNAB absorption following oral administration: absorbed rapidly
[4]
  activity in primary molecular targets in receptor binding screening assays: did not demonstrate potential activity
Genotoxicity studies
  genotoxicity findings: no positive findings
[5]
  highest proposed dose of 2000 mg 4-CNAB in man (<30 mg/kg) lower than the NOAEL in monkeys: 12-16 fold
[6]
  tolerability of 4-CNAB: well tolerated
[6]; oral capsules
  time of 4-CNAB concentration peak post administration: about 30 minutes
